In PubChem BioAssay AID1963970 (Molecular Pharmacology Branch, DTP, NCI, 2024) one finds viability, T/C and IC50 data, which are given here for six compounds.

For the test, the system named is 931267-113-T-J1-PDC multicell spheroid viability. The experiment in a line: Anticancer human tumor 931267-113-T-J1-PDC patient-derived colon adenocarcinoma cell line growth inhibition [PI3K]. The conditions noted are these: for viability, T/C: stronger effect = lower value. The text has this: Combinatorial screen of targeted agents with the PI3K inhibitors inavolisib, alpelisib, duvelisib, and copanlisib in multi-cell type tumor spheroids
A high-throughput screen of multi-cell type tumor spheroids was designed to identify active combinations of targeted small molecules and PI3K pathway inhibitors. Complex spheroids include a stromal component modeled by human endothelial cells (HUVEC) and fibroblasts modeled by human mesenchymal stem cells (MSCs). The concentration ranges selected for each drug and investigational agent were based upon clinically achievable concentrations if the clinical Cmax of the agent was known.
Compounds. The drugs and investigational agents: inavolisib (NSC800729), alpelisib (NSC765974), duvelisib (NSC772469), copanlisib (NSC816437), ipatasertib (NSC767898), afuresertib (NSC778305), talazoparib (NSC767125), sapanisertib (NSC764658), selumetinib (NSC741078), tovorafenib (DAY101, NSC766906), vemurafenib (NSC761431), ravoxertinib (NSC781343), sotorasib (NSC818433), MRTX1133 (NSC 836407), abemaciclib (NSC 768073), palbociclib (NSC758247), venetoclax (NSC 766270), SY5609 (NSC837396), enzalutamide (NSC755605), and darolutamide (NSC825331), were obtained from the National Cancer Institute (NCI) Developmental Therapeutics Program Chemical Repository. The FDA-approved anticancer drug set is available from the NCI Developmental Therapeutics Program. […] The stock solutions were prepared in dimethyl sulfoxide (DMSO, Sigma-Aldrich, St. Louis, MO, cat. D2650) at 800-fold the tested concentration and stored at -70 degrees C prior to their use. All drugs and investigational agents were tested over a range starting from a high concentration at or near the clinical Cmax and decreasing in half-log increments. If the clinical Cmax for an agent had not been determined, the highest concentration tested was 10 microM.
Cell Culture. All cells were maintained in an incubator at 37 degrees C and 5% CO2 with 95% humidity. The PDC lines were cultured according to standard operating procedures established by the NCI PDMR (https://pdmr.cancer.gov/sops/default.htm). All PDCs were thawed and cultured in Matrigel-coated flasks prepared with a working solution of 1X Ham's F-12 nutrient mix, without supplementation (Invitrogen, Waltham, MA, cat. 11765054), 100 U/mL penicillin-streptomycin (Invitrogen, cat. 15140122), and 2.5% Matrigel (Corning Inc., Corning, NY, cat. 354248) for the first three passages. The 354836-022-R-J1-PDC, 475296-252-R-J1-PDC, and 997726-040-R-J2-PDC lines were cultured in 6A media, which includes advanced DMEM/F-12 (Thermo Fisher Scientific, cat. 12634028), 10 mM HEPES (Thermo Fisher Scientific, cat. 15630080), 1X GlutaMAX supplement (Thermo Fisher Scientific, cat. 35050061), 0.1 mg/mL primocin (InvivoGen, San Diego, CA, cat. ant-pm-2), 10% defined fetal bovine serum, heat inactivated (HyClone Laboratories Inc., Logan, UT, cat. SH30070.03HI), 50% L-WRN conditioned media (ATCC, cat. CRL-3276), 1.25 mM N-Acetyl-L-cysteine (Sigma-Aldrich, cat. A9165), 10 mM nicotinamide (Sigma-Aldrich, cat. N0636), 1X B-27 supplement (Thermo Fisher Scientific, cat. 17504044), 1X N-2 supplement (Thermo Fisher Scientific, cat. 17502048), and 10 microM Y-27632 dihydrochloride (Tocris Bioscience, Bristol, United Kingdom, cat. 1254). The 624824-186-R-J2-PDC line was cultured in 6C/Colon 1B media, which includes all 6A media components plus 50 ng/mL human EGF recombinant protein (Thermo Fisher Scientific, cat. PHG0311). […]

Where “and” joins values, the source holds several entries; their conditions need not be identical. Equal entries are not always repeated.

By viability, T/C is commonly meant the result in the treated group divided by that in the control group, in per cent. By IC50 is commonly meant the concentration that inhibits the measured activity by half.
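Also: viability read 7 days after compound addition.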

`C#Cc1c(F)ccc2cc(O)cc(-c3ncc4c(N5CC6CCC(C5)N6)nc(OCC56CCCN5CC(F)C6)nc4c3F)c12` (centres undefined): the viability, T/C (compound 0.0316 µM) is 85% [middle of 4 runs]; the viability, T/C (compound 0.1 µM) was 71.4% [middle of 4 runs]; the viability, T/C (compound 0.316 µM) is 58.2% [middle of 4 runs]; the viability, T/C (compound 1 µM) is 44.2% [middle of 4 runs]; the viability, T/C (compound 3.16 µM) is 36.2% [middle of 4 runs]; the viability, T/C (compound 10 µM) was 24% and 25.4% and 23.7% (2×). Besides, the IC50 (curve of compound) was 670 nM [middle of 4 runs].

Regarding `C=CC(=O)N1CCN(c2nc(=O)n(-c3c(C)ccnc3C(C)C)c3nc(-c4c(O)cccc4F)c(F)cc23)C(C)C1` (centres undefined), the viability, T/C (compound 0.0316 µM) is 119% and 104% (2×) and 102%; the viability, T/C (compound 0.316 µM) is 106% [middle of 4 runs]; the viability, T/C (compound 1 µM) is 109% [middle of 4 runs]; the viability, T/C (compound 3.16 µM) is 108% and 110% (2×) and 107%; the viability, T/C (compound 10 µM) is 104% and 105% (2×) and 99.7%. In addition, the IC50 (curve of compound) is greater than 10000 nM.

With `CC1(C)CCC(Nc2ncc(C(F)(F)F)c(-c3c[nH]c4c(P(C)(C)=O)c(C#N)ccc34)n2)CN1` (centres undefined), the viability, T/C by setting is: (compound 0.0316 µM) 107% [middle of 4 runs]; (compound 0.1 µM) 102% [middle of 4 runs]; (compound 0.316 µM) 89.3% [middle of 4 runs]; (compound 1 µM) 85.7% [middle of 4 runs]; (compound 10 µM) 64.5% [middle of 4 runs]. Also, the concentration for half-maximal inhibition (IC50) (curve of compound) is greater than 10000 nM.

Regarding `Cn1ncc(Cl)c1-c1cc(C(=O)NC(CN)Cc2cccc(F)c2)sc1Cl` (centres undefined), the viability, T/C is 105% [middle of 4 runs] (compound 0.0316 µM); 98.2% [middle of 4 runs] (compound 0.1 µM); 96.1% [middle of 4 runs] (compound 0.316 µM); 87.7% [middle of 4 runs] (compound 1 µM); 77.1% [middle of 4 runs] (compound 3.16 µM); 39.5% [middle of 4 runs] (compound 10 µM). Also, the IC50 (curve of compound) is 7.22 µM [middle of 4 runs].

As to `Cn1nccc1Nc1nccc(-c2ccn(C(CO)c3ccc(Cl)c(F)c3)c(=O)c2)n1` (centres undefined), the viability, T/C runs as follows: (compound 0.0316 µM) 100% [middle of 4 runs]; (compound 0.1 µM) 91.3% [middle of 4 runs]; (compound 0.316 µM) 90.2% [middle of 4 runs]; (compound 1 µM) 74.1% [middle of 4 runs]; (compound 3.16 µM) 67.2% [middle of 4 runs]; (compound 10 µM) 40.4% [middle of 4 runs].

`Cn1cnc2c(F)c(Nc3ccc(Br)cc3Cl)c(C(=O)NOCCO)cc21` + CC(Nc1ccc2c(c1)OCCn1cc(N3C(=O)OCC3C(F)F)nc1-2)C(N)=O: the IC50 turned out to be 119 nM (curve of first compound, second compound 0.00316 µM); 99.7 nM (curve of first compound, second compound 0.01 µM); 80.1 nM (curve of first compound, second compound 0.0316 µM); 54.6 nM (curve of first compound, second compound 0.1 µM); 36.4 nM (curve of first compound, second compound 0.316 µM); 19.8 nM (curve of first compound, second compound 1 µM). Moreover, the viability, T/C was 69.8% (second compound 0.00316 µM, first compound 0.00949 µM); 71.2% (second compound 0.00316 µM, first compound 0.03 µM); 52.1% (second compound 0.00316 µM, first compound 0.0949 µM); 33.3% (second compound 0.00316 µM, first compound 0.3 µM); 21.4% (second compound 0.00316 µM, first compound 0.949 µM); 11.4% (second compound 0.00316 µM, first compound 3 µM). Moreover, the viability, T/C is, setting by setting: (second compound 0.01 µM, first compound 0.00949 µM) 91.1%; (second compound 0.01 µM, first compound 0.03 µM) 74.7%; (second compound 0.01 µM, first compound 0.0949 µM) 50%; (second compound 0.01 µM, first compound 0.3 µM) 31%; (second compound 0.01 µM, first compound 0.949 µM) 15.3%; (second compound 0.01 µM, first compound 3 µM) 10.8%. For the same compound, the viability, T/C was 89.6% (second compound 0.0316 µM, first compound 0.00949 µM); 69.5% (second compound 0.0316 µM, first compound 0.03 µM); 47.9% (second compound 0.0316 µM, first compound 0.0949 µM); 25.2% (second compound 0.0316 µM, first compound 0.3 µM); 15.2% (second compound 0.0316 µM, first compound 0.949 µM); 9.45% (second compound 0.0316 µM, first compound 3 µM). The viability, T/C is 75.9% (second compound 0.1 µM, first compound 0.00949 µM); 61.8% (second compound 0.1 µM, first compound 0.03 µM); 39.3% (second compound 0.1 µM, first compound 0.0949 µM); 21.3% (second compound 0.1 µM, first compound 0.3 µM); 15.2% (second compound 0.1 µM, first compound 0.949 µM); 8.34% (second compound 0.1 µM, first compound 3 µM). Also, the viability, T/C (second compound 0.316 µM, first compound 0.00949 µM) is 78.3%; the viability, T/C (second compound 0.316 µM, first compound 0.03 µM) is 53.9%; the viability, T/C (second compound 0.316 µM, first compound 0.0949 µM) is 31.3%; the viability, T/C (second compound 0.316 µM, first compound 0.3 µM) is 17.2%; the viability, T/C (second compound 0.316 µM, first compound 0.949 µM) is 10.9%; the viability, T/C (second compound 0.316 µM, first compound 3 µM) was 6.16%. Also, the viability, T/C was 63.1% (second compound 1 µM, first compound 0.00949 µM); 42% (second compound 1 µM, first compound 0.03 µM); 28.7% (second compound 1 µM, first compound 0.0949 µM); 15.9% (second compound 1 µM, first compound 0.3 µM); 10.3% (second compound 1 µM, first compound 0.949 µM); 4.28% (second compound 1 µM, first compound 3 µM).
